Earlier results, collected in patent US11197931B2, “Liquid injectable copolymer” (Queen's University at Kingston, priority 2017, dated 2021).

Conditions: 25° C.

saturation concentration: 80 mg/L
SMILES: C[C@]12C=CC(=O)C=C1CC[C@H]1[C@@H]3C[C@@H](O)[C@](O)(C(=O)CO)[C@@]3(C)C[C@H](O)[C@@]12F [triamcinolone]
